The values below are quoted from earlier work in patent US20090202633A1, “Extended release formulations of guaifenesin” (priority 2008, published 2009).

Experiment in data set [1]: not given
This is another data set of the same source.

In the case of `COc1ccccc1OCC(O)CO` (centres unmarked) [Guaifenesin, 3-(2-methoxyphenoxy)-1,2-propanediol], the typical plasma half-life result is recorded as “approximately one”. In addition, the solubility in water entry in data set [1] is “soluble in water”.
